Key:
[1] = biological target: T1, Cytochrome P450 11B2, mitochondrial (Homo sapiens, UniProt P19099); assay: Inhibition of CYP11B2 […] cells using [3H]-11-deoxycorticosterone as substrate at 500 nM incubated for 1 hr prior to substrate addition measured after 45 mins by HPLC analysis; type: cell-based; settings: 0.75 h
T1 sequence (P19099 whole entry): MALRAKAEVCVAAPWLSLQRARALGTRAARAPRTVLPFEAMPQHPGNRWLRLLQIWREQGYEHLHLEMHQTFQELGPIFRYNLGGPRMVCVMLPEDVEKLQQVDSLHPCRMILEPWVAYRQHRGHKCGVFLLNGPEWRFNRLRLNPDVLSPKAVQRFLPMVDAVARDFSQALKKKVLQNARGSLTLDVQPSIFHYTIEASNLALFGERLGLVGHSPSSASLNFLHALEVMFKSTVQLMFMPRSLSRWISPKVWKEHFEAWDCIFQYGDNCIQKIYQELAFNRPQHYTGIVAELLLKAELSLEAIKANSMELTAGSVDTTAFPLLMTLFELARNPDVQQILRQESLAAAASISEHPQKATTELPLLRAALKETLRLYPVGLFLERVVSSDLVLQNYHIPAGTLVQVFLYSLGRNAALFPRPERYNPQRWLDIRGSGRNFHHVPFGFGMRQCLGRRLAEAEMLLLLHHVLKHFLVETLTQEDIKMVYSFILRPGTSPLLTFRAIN

[2] = biological target: T2, Cytochrome P450 11B1, mitochondrial (Homo sapiens, UniProt P15538); assay: (§1) Inhibition of CYP11B1 […] cells using [3H]-11-deoxycorticosterone as substrate incubated for 1 hr prior to substrate addition measured after 25 mins by HPLC analysis; type: cell-based
T2 sequence (P15538 whole entry): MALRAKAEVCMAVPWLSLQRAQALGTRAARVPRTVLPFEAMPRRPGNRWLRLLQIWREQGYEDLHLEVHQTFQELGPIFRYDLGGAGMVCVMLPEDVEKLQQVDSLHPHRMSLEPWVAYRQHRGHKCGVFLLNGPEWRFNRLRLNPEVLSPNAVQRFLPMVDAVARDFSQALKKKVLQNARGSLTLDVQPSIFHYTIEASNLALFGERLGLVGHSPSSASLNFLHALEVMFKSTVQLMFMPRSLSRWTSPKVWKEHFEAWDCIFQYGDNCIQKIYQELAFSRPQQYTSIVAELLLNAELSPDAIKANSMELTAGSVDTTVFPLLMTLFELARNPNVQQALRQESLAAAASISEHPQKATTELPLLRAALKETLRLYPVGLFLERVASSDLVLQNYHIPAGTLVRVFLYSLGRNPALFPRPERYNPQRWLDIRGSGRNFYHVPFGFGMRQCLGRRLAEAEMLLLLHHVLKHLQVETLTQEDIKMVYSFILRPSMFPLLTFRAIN

[3] = biological target: T1, Cytochrome P450 11B2, mitochondrial; assay: Inhibition of CYP11B2 […] cells using [3H]-11-deoxycorticosterone as substrate incubated for 1 hr prior to substrate addition measured after 45 mins by HPLC analysis; type: cell-based
CYP17 = biological target: T3, CYP17 (Homo sapiens, UniProt P05093); assay: Inhibition of human recombinant CYP17 expressed in Escherichia coli using progesterone as substrate at 2 uM; settings: probe progesterone
T3 sequence (P05093 whole entry): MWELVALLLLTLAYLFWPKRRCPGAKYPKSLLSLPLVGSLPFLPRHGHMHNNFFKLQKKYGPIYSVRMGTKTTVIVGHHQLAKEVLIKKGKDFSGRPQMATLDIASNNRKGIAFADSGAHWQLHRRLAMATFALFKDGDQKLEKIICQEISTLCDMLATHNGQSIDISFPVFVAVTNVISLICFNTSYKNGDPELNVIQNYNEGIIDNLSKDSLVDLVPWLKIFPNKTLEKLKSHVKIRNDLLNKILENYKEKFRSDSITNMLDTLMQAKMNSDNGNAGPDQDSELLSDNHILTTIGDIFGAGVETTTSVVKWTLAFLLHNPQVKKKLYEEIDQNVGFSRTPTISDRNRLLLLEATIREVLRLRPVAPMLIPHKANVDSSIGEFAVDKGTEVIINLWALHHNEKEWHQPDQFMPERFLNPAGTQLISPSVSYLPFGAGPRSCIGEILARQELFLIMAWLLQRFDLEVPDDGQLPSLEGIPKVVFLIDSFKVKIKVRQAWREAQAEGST

CYP19 (aromatase) = biological target: T4, CYP19 (aromatase) (Homo sapiens, UniProt P11511); assay: Inhibition of human recombinant CYP19 using [1beta-3H]androstenedione as substrate at 500 nM; settings: recombinant CYP19, probe [1beta-3H]androstenedione
T4 sequence (P11511 whole entry): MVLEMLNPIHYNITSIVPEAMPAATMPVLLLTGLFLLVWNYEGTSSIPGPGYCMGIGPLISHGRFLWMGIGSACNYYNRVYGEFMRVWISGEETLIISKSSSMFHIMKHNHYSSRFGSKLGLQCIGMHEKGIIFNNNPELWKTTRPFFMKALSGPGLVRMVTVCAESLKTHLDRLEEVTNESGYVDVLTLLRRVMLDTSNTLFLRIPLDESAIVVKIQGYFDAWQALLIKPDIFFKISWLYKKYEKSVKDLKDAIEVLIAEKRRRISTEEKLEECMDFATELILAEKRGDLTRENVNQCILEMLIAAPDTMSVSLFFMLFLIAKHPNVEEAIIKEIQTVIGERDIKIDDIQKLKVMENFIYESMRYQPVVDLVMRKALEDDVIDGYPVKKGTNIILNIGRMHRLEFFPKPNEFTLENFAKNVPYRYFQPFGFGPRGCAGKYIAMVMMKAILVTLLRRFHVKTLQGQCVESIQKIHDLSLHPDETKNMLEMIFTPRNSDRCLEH

CYP11B1 = biological target: T5, CYP11B1 (Homo sapiens, UniProt P15538); assay: as §1; type: cell-based; settings: human, V79MZ cells expressing CYP11B1, probe [3H]-11-deoxycorticosterone
T5 sequence (P15538 whole entry): T2 sequence (P15538 whole entry)

[4] = biological target: T6, Cytochrome P450 11B2, mitochondrial (Rattus norvegicus, UniProt P30099); assay: Inhibition of rat CYP11B2 using [3H]-11-deoxycorticosterone as substrate at 2 uM incubated for 1 hr prior to substrate addition measured after 7 hrs by HPLC analysis
T6 sequence (P30099 whole entry): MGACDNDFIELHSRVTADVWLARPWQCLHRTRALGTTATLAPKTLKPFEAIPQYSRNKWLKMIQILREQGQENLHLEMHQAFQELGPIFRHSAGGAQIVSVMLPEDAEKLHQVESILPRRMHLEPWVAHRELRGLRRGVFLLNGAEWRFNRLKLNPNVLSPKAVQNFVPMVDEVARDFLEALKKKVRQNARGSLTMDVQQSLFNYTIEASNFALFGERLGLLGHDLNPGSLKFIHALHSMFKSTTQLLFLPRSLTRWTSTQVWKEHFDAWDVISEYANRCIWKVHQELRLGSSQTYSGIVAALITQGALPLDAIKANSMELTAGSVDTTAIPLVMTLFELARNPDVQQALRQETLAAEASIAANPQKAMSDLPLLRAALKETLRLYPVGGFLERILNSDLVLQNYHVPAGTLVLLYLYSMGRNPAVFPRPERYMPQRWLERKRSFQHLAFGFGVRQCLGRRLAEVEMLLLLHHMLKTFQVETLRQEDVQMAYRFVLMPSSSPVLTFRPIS

[5] = biological target: T6, Cytochrome P450 11B2, mitochondrial; assay: Inhibition of rat CYP11B2 using [3H]-11-deoxycorticosterone as substrate at 0.5 uM incubated for 1 hr prior to substrate addition measured after 7 hrs by HPLC analysis; settings: read-out: INH

Compound | inhibition at 0.5 µM [1] | IC50 [2] | IC50 [3] | inhibition at 2 µM (CYP17) | inhibition at 0.5 µM (CYP19 (aromatase)) | IC50 at 25 min (CYP11B1) | inhibition at 2 µM [4] | inhibition at 0.5 µM [5]
O=C1NCc2cc(-c3cccnc3)ccc2N1 | 72% | 120 nM | 228 nM |  |  |  |  | 
O=C1CCc2cc(-c3cccnc3)ccc2N1 |  |  | 28 nM | 20% | 31% | 6750 nM | < 5% | 
N#Cc1ccc(C2CCCc3cncn32)cc1 (stereo unspecified) [FADROZOLE] |  |  |  |  |  |  |  | 67%

More lines, now with the values ahead:

inhibition at 0.5 µM [1] | IC50 [2] | IC50 [3] | inhibition at 2 µM (CYP17) | inhibition at 0.5 µM (CYP19 (aromatase)) | IC50 at 25 min (CYP11B1) | inhibition at 2 µM [4] | inhibition at 0.5 µM [5] | Compound
98% | 776 nM | 11 nM | < 10% | 20% |  |  |  | CN1C(=O)COc2cc(-c3cccnc3)ccc21
 |  | 12 nM |  |  | 525 nM |  |  | O=C1CSc2cc(-c3cccnc3)ccc2N1

From ChEMBL document CHEMBL3396957, “Heteroatom insertion into 3,4-dihydro-1H-quinolin-2-ones leads to potent and selective inhibitors of human and rat aldosterone synthase” (Eur J Med Chem, 2015)
